Data published in patent US11040108B2, “Amino acid- and peptide-steroid conjugates and use thereof” (BRANDEIS UNIVERSITY, priority 2016, dated 2021).
Where two headings read alike, the source gives them in different places.

Legend:
T98G glioblastoma cells = test: MTT assay, cell viability of T98G; format: cell-based; details: Homo sapiens, read-out: IC50 against T98G
Protocol: (§1) HeLa, Saos-2, HS-5, HepG2, T98G, and A2780 cells were purchased from American-type Culture Collection (ATCC, USA). A2780cis cell was purchased from Sigma. HeLa cells, HepG-2 cells, and T98G cells were cultured in MEM Medium supplemented with 10% v/v fetal bovine serum, 100 U/mL penicillin, and 100 μg/mL streptomycin. Saos-2 cells were cultured in McCoy's 5a Medium (for Saos-2) supplemented with 15% v/v fetal bovine serum, 100 U/mL penicillin, and 100 μg/mL streptomycin. HS-5 cells were cultured in Dulbecco's Modified Eagle's medium (DMEM) supplemented with 10% v fetal bovine serum (FBS), 100 U/mL penicillin, and 100 μg/mL streptomycin. A2780cis cells were cultured in RPMI 1640 Medium supplemented with 10% v/v fetal bovine serum, 100 U/mL penicillin, and 100 μg/mL streptomycin (cisplatin only necessary every 2-3 passages). All cells were maintained at 37° C. in a humidified atmosphere of 5% CO2.
An MTT assay was used to test the cytotoxicity. All different cell lines were seeded in 96-well plates at 1×10^5 cells/well for 24 hours followed by removal of the culture medium and subsequent addition of culture medium containing different concentrations of the precursors. […] The absorbance of each well at 595 nm was measured by a multimode microplate reader. […]

[1] = tested on: HS-5 cell line (human bone marrow stroma cell line); test: MTT assay, cell viability of HS-5; format: cell-based; details: for IC50: Homo sapiens, HS5, read-out: IC50 against HS-5
Protocol: as §1
An MTT assay was used to test the cytotoxicity. All different cell lines were seeded in 96-well plates at 1×10^5 cells/well for 24 hours followed by removal of the culture medium and subsequent addition of culture medium containing different concentrations of the precursors. At designated time (24/48/72 hours), 10 μL MTT solution (5 mg/mL) was added to each well and incubated at 37° C. for another 4 hours, and then 100 μL of SDS-HCl solution was added to stop the reduction reaction and dissolve the purple formazan. The absorbance of each well at 595 nm was measured by a multimode microplate reader. The cytotoxicity assay was performed three times and the average value of the three measurements was taken.
To verify the selectivity of 1a against cancer cells, the HS-5 cell line (human bone marrow stroma cell line) was used; HS-5 hardly overexpresses ALP on cell surface. […] To further confirm that ALP on cell surface (i.e., as an ectophosphatase) contributed to the inhibitory activity of 1a, A2780cis were incubated with 1a and ALP (1 U/mL).
Additional cell viability assays were carried out using conjugates 1a and 1b, optionally with 3, against HepG2 human liver carcinoma cells, Saos-2 osteosarcoma cells, T98G glioblastoma cells, HS-5 (normal bone marrow stromal cells), A2780 ovarian cancer cells (parental line to A2780cis), and Kuramochi ovarian cancer cells. Conjugate 1a was particularly effective against ovarian and cervical cancer cells.

[2] = tested on: cell death receptors (CD95, DR3, DR5, TNFR1, TNFR2) on A2780cis cells; test: Antibody staining of cell death receptors (CLSM); format: cell-based, human; details: 1a 12.5 μM, 12 or 24 hours
Protocol: Procedure recommended by ABCAM for antibody staining was used. Cells were seeded (100,000-200,000 cell/3.5 cm confocal dish) and attachment was allowed (24 hours). Cells were incubated with 12.5 μM of precursor 1a for 12 hours or 24 hours. Then the cells were washed with PBS buffer three times and fixed by 4% formaldehyde for 15 minutes. Fixed cells were then washed with PBS buffer three times and incubated in 1.0% BSA/10% normal goat serum/0.3M glycine in 0.1% PBS-Tween for 1 hour to permeabilize the cells and block non-specific protein-protein interactions. Then they were washed with PBS buffer three times and incubated with the primary antibody (diluted 1/100, overnight at 4° C.). Then they were washed with PBS buffer three times and exposed to the secondary antibody (ab150077 Alexa Fluor® 488 goat anti-rabbit IgG (H+L), green) at 2 μg/ml (diluted 1/1000) for 1 hour. Hoechst 33342 was used to stain the cell nuclei (blue). The sample was washed with PBS buffer three times and mounted for imaging.
Antibody staining was used to examine the extrinsic cell death signaling molecules induced by the assemblies of 1b. […]

[3] = tested on: lipid rafts in A2780cis cells; test: Laurdan staining of lipid rafts, A2780cis; format: cell-based, human; details: 1a 12.5 μM, 12 hours, 10 μM laurdan
From the text: Considering that cholesterol is the basic component of lipid rafts, dynamic assemblies in cell membrane (Simons et al., “Functional Rafts in Cell Membranes,” Nature 387:569 (1997), which is hereby incorporated by reference in its entirety), laurdan, a commonly used probe for the polarity membrane (Parasassi et al., “Quantitation of Lipid Phases in Phospholipid Vesicles by the Generalized Polarization of Laurdan Fluorescence,” Biophys. J. 60:179 (1991), which is hereby incorporated by reference in its entirety), was used to examine the changes of lipid rafts upon the EISA of […]. Without treatment of 1a, the fluorescence of laurdan dispersed relatively evenly in the whole cell membrane (FIG. 8C).

[4] = tested on: ER stress markers and ROS in A2780cis and HeLa cells; test: Western blot of ER stress markers and CLSM detection of ROS; format: cell-based, human; details: 1a 12.5 μM, 12 hours for ROS
Protocol: Further exploration of the mode of action of 1a against A2780cis and HeLa cells was carried out via Western blot for the following ER stress markers: CHOP, Bip, PDI, IRE1α, Calnexin, Erol-Lα, PERK, and β-actin; or p-SAPK/JNK. Western blot was carried out via gel electrophoresis at […] for 1.5 hrs, and then transferring the protein on the gel to PVDF membranes for overnight at […] (4° C.). After that, the membrane was incubated with primary antibodies (obtained from Cell Signaling Technology) overnight at 4° C. The membrane was then incubated with secondary antibodies for 1 h at room temperature. This was followed by the reaction with ECL solutions for 10 minutes, and analysis of the results by autoradiography. Generation of ROS was detected in CLSM images via DHE emissions in exposed cells. CLSM imaging was carried out at the excitation of 543 nm and DHE emission was detected at the wavelength at 575 nm to 625 nm; or detection of anti-phospho-SRC and anti-phospho-Akt.

## CC(C)CCC[C@@H](C)C1CC[C@H]2[C@@H]3CC=C4CC(OC(=O)NC(Cc5ccc(OP(=O)(O)O)cc5)C(=O)O)CC[C@]4(C)[C@H]3CC[C@]12C (stereo partly drawn) [1a, Cholesterol-(phospho)D-Tyr]
T98G glioblastoma cells; 48 hours
  IC50: 48 µM
T98G glioblastoma cells; 72 hours
  IC50: 37 µM
[1]; 12.5 μM, 48 hours (FIG. 5A)
  cell viability / proliferation of HS-5: innocuous
[1]; 48 hours
  IC50: 32 µM
[1]; 72 hours
  IC50: 21 µM
[2]
  clustering of DR3 or TNF-R1: rather moderate
  clustering of DR5: significant clustering
[3]
  laurdan fluorescence in cell membrane (lipid rafts): increased inhomogeneity of the fluorescence
[4]
  ER stress markers and ROS generation: induces cell apoptosis via ER stress and generation of ROS
